From US5972598A, “Methods for preventing multidrug resistance in cancer cells” (priority 1995, dated 1999)
Entries after “also recorded” stand apart in the source; their conditions may differ. Read-outs that look alike come from different tables or passages of the source.

How the values were obtained:
[1] = system: H9 cells; assay: Cellular toxicity in H9 cells; conditions: concentrations higher than 5 μM
[2] = system: MDR1; assay: Inhibition of cytotoxic drug (Ara-C) induced MDR1 expression by protein kinase inhibitors; format: cell-based, human; conditions: for inhibition of Ara-C induced MDR1 expression: 5 μM
Procedure: FIG. 5. Effect of protein kinase inhibitors on MDR1 mRNA induction by cytotoxic drugs in H9 cells. […]
(Commercially-available kits (for example, from GIBCO/BRL, Gaithersburg, Md.) can be advantageously modified for making cDNA using random hexamers.) PCR is then performed using the following primers: […]
(§1) (where β2 M represents β2 microglobulin). PCR was performed for β2 M experiments under a regime consisting of 1 cycle comprising denaturation at 94° C. for 3 minutes, primer annealing at 60° C. for 30 seconds, and primer extension at 72° C. for 1 minute, followed by 19 cycles comprising denaturation at 94° C. for 30 seconds, primer annealing at 60° C. for 30 seconds, and primer extension at 72° C. for 1 minute, followed by a final cycle comprising denaturation at 94° C. for 30 seconds, primer annealing at 60° C. for 30 seconds, and primer extension at 72° C. for 5 minutes. MDR1 cDNA sequences were amplified using the identical protocol as for β2 M, but extending the amplification from 19 cycles to 25 cycles. In addition, the cDNA-PCR amplification protocol contained the following modifications: (i) Taq DNA polymerase was added to the PCR mixtures after initial heating of the samples to 94° C. (ii) The yield of the β2 -microglobulin-specific band, obtained after 22-28 cycles of PCR, was used as the primary criterion for equalizing the starting amounts of the cDNA templates in different preparations, in order to account for differential RNA degradation in cells subjected to different types of treatment. […] PCR products were detected by autoradiography.
Cells were plated in 6-well Falcon tissue culture plates at 3,300 cells per well, and incubated in the appropriate concentrations of drugs. Each of the protein kinase inhibitors to be tested were added at their appropriate final concentrations 45 minutes prior to MDR1 induction by the addition of Ara-C or TPA, with the exception of herbimycin A, which was added 12 hours prior to Ara-C or TPA, and tyrphostins A25 and B46, which were each added 16 hours prior to MDR1 induction by the addition of Ara-C or TPA. Cells were incubated overnight (TPA) or for 10 hours (Ara-C) at 37° C. under an atmosphere of 5% CO2 after the addition of the MDR1 inducing agents before harvesting for cDNA-PCR analysis.
In addition to these conditions, the analysis of certain drugs imposed added requirements. For experiments using calphostin C, cells were incubated under direct white light illumination. For experiments using D,L-threo-sphingosine, the cell culture medium was pre-treated with the appropriate concentration of the drug for one hour at 37° C. with continuous gentle mixing. After this pre-treatment, cells were resuspended in media supplemented with drug and incubated for 45 minutes as described above.
cDNA-PCR analyses on each culture treated with drugs, or in control cultures incubated in the absence or presence of Ara-C or TPA alone, were performed as described in Section 6.1.3 above.
To further evaluate the capacity of protein kinase inhibitors to suppress MDR1 induction by cytotoxic drugs and PKC agonists, H-9 human T cell leukemia cells were used in cDNA-PCR assays to examine induced MDR1 mRNA expression levels in the presence of such protein kinase inhibitors.

[3] = clinical trials; cited from earlier work
[4] = molecular target: protein kinase A; conditions: Hidaka et al., 1984; cited from earlier work
[5] = system: PKC; conditions: Hidaka et al., 1984; cited from earlier work
[6] = system: protein kinases; conditions: 10-fold weaker than H7; Pelosin et al., 1990; cited from earlier work
[7] = system: MDR1; format: cell-based, human
Procedure: (§2) Neomycin sulfate (Calbiochem) was dissolved in sterile, deionized water.
(§3) P-glycoprotein expression on the cell surface was analyzed using a P-glycoprotein-specific mouse IgG2a monoclonal antibody (mAB) UIC2 (Mechetner and Roninson, 1992, Proc. Natl. Acad. Sci. USA 89:5824-5828). Mouse IgG2a isotype control antibody was obtained from Sigma. For staining of PBL with UIC2 mAB or isotype control, 10^6 cells were stained at 4° C. with 10 μg of the antibody for 30 minutes and, after two washes, stained for 30 minutes with 10 μg of FITC-conjugated goat anti-mouse IgG2a antibody (Fisher Scientific, Fairlawn, N.J.), diluted 1:2 with PBS plus 2% FCS. Cells were then washed twice with ice-cold PBS plus 2% FCS, stained with PI and kept on ice until analysis. Essentially the same protocol was used for staining of other cell types except that 2 μg of the secondary antibody were used per 10^6 cells. In some experiments, phycoerythrine (PE)-conjugated goat anti-mouse IgG2a was used as the secondary antibody; no PI was added in such cases. Flow cytometric analysis was conducted on a Coulter Epics 753 Flow Cytometer.
(§4) RNA was extracted from approximately 10^6 cells by a small-scale sodium dodecyl sulfate extraction procedure (Peppel and Baglioni, 1990, BioTechniques 9:711-713). In the alternative, RNA was isolated from cells using the TRIzol method (commercially available from GIBCO/BRL). cDNA synthesis and polymerase chain reaction (PCR) amplification of MDR1 and β2 -microglobulin cDNA sequences were carried out essentially as described (Noonan et al., 1990, Proc. Natl. Acad. Sci. USA 87:7160-7164; Noonan and Roninson, 1991, pp. 319-333 In Roninson (Ed.), Molecular and Cellular Biology of Multidrug Resistance in Tumor Cells, Plenum Press, New York). Briefly, cDNA was prepared using the method of Krug and Berger (1987, Meth. Enzymol. 152: 316-324), with the modification that random hexamers were substituted for oligo(dT) as primers for cDNA synthesis. (Commercially-available kits (for example, from GIBCO/BRL, Gaithersburg, Md.) can be advantageously modified for making cDNA using random hexamers.) PCR is then performed using the following primers: […]
as §1
MDR1 gene expression was evaluated by a functional assay for Rh123

[8] = system: MDR1; assay: cDNA-PCR / flow cytometric analysis of MDR1 induction by PKC agonists; format: cell-based, human
Procedure: as §2, §3, §4, §1

[9] = system: P-glycoprotein; assay: UIC2 antibody staining of P-glycoprotein on the cell surface; format: cell-based; conditions: human PBL
Procedure: as §3
To determine if the observed effect of PKC stimulants on P-glycoprotein activity could be due to an increase in P-glycoprotein expression, untreated and TPA-treated PBL were stained by indirect immunofluorescence labeling with a monoclonal antibody UIC2 that recognized an extracellular epitope of P-glycoprotein encoded by the human MDR1 gene. […]

[10] = system: MDR1; design: key to the marks not given beside the values
[11] = molecular target: P-glycoprotein (Homo sapiens, UniProt P08183); assay: Rh123 accumulation assay of P-glycoprotein activity in human PBL; conditions: human PBL
Chain of P-glycoprotein (Homo sapiens, UniProt P08183) (P08183 whole entry): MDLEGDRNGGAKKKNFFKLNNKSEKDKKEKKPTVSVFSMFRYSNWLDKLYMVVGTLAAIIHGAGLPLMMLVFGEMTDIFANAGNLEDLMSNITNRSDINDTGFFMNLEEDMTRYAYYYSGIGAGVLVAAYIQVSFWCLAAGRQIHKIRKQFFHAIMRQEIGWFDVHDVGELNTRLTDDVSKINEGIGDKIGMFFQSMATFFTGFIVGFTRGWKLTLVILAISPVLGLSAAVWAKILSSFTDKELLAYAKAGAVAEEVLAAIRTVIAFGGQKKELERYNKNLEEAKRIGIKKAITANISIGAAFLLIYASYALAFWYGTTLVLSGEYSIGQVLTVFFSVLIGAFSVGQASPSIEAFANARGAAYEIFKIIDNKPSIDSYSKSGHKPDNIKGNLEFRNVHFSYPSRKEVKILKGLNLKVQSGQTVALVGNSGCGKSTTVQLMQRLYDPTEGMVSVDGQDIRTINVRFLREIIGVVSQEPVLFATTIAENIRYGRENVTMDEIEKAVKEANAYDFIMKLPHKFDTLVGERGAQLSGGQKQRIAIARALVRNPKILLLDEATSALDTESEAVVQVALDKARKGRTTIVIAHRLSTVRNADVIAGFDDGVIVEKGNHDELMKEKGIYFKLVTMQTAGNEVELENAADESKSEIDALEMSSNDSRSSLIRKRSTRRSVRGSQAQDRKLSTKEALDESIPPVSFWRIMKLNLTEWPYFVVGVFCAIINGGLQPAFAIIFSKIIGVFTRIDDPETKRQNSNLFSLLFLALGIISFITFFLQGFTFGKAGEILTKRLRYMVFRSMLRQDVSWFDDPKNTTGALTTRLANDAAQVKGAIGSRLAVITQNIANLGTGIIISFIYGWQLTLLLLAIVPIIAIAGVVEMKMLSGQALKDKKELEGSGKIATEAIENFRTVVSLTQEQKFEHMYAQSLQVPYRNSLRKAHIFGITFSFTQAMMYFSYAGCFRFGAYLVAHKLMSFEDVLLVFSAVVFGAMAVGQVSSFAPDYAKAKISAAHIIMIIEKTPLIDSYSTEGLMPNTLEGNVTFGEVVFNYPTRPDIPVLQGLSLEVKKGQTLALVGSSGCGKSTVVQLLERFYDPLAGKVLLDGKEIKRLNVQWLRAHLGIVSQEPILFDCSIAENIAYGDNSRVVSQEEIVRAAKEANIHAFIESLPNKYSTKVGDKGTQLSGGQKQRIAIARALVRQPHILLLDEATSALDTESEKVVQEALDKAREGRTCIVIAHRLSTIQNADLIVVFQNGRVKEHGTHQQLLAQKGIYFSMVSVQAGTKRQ
Procedure: KG1 cell line was maintained in Iscove's modified Dulbecco medium with 20% fetal calf serum (FCS) and 2 mM L-glutamine, 100 units/ml penicillin and 100 μg/ml streptomycin (GIBCO Laboratories, Grand Island, N.Y.).
A functional assay was used to detect changes in P-glycoprotein activity in human PBL treated with different agents that induce lymphoid differentiation or activation, based on flow cytometric analysis of cellular accumulation of Rh123, which is a P-glycoprotein-transported fluorescent mitochondrial dye. In this assay, cells expressing little or no P-glycoprotein stain brightly with Rh123, whereas cells with higher levels of P-glycoprotein activity appear Rh123-dull. […] Since the best-known cellular effect of TPA is the stimulation of PKC, it was also tested whether DOG, a cell-permeable diacylglycerol and a physiological stimulant of PKC, would have an effect on Rh123 accumulation in PBL.

[12] = system: hormone-refractory prostate cancer; conditions: continuous infusion, peak of 300 μg/ml at end of 14 days; cited from earlier work

CCCCCCCCCCCCC/C=C/[C@H](O)[C@@H](N)CO (relative stereo) [D,L-threo-sphingosine]
cellular toxicity [1]: higher concentrations induced cellular toxicity | inhibition of Ara-C induced MDR1 expression [2]: little or no capacity to inhibit Ara-C induced MDR1 expression; also recorded: ineffective in inhibiting Ara-C induced MDR1 expression | inhibition of Ara-C induced MDR1 expression ([2]; H9 cells, 25 μM Ara-C 10 h): -

CCCCCCCCCCCCCCCCSCC(COC)COP(=O)([O-])OCC[N+](C)(C)C (stereo not drawn) [BM41440]
MTD, oral [3]: 5 mg/kg body weight

CC1CNCCN1S(=O)(=O)c1cccc2cnccc12 (stereo not drawn) [H7]
IC50 [4]: 3000 nM | IC50 [5]: 6 µM | prevention of MDR1 induction by chemotherapeutic drugs ([2]; 50 μM): prevent MDR1 induction

N=C(N)NCCNS(=O)(=O)c1cccc2cnccc12 [HA1004]
IC50 [4]: 2300 nM | IC50 [5]: 40 µM | inhibition of MDR1 induction by Ara-C ([2]; H9 cells, 60 μM HA1004, 50 μM Ara-C 22 hr): no significant inhibition | prevention of MDR1 induction ([2]; protein kinase inhibitor inactive against PKC): totally ineffective in preventing MDR1 induction

CC1CN(S(=O)(=O)c2cccc3cnccc23)CCN1 (stereo not drawn) [IsoH7]
effect on protein kinases relative to H7 [6]: 10 fold | inhibition of drug-induced MDR1 expression ([2]; IsoH7): No significant inhibition

CCCCCCCCCCCCCC(=O)O[C@@H]1[C@@H](C)[C@@]2(O)[C@@H](C=C(CO)C[C@]3(O)C(=O)C(C)=C[C@@H]23)[C@@H]2C(C)(C)[C@]12OC(C)=O [TPA, 12-o-tetradecanoylphorbol-13-acetate]
MDR1 expression, TPA-treated [7]: - | MDR1 expression, TPA-treated ([7]; 0.001 ug/mL): ++ | MDR1 expression, TPA-treated ([7]; 0.01 ug/mL): ++ | MDR1 expression, TPA-treated ([7]; 0.1 ug/mL): +++ | MDR1 expression, TPA-treated ([7]; EJ (bladder carcinoma), untreated +, assay F): ++ | MDR1 expression, TPA-treated ([7]; HT 1080 (fibrosarcoma), untreated -, assays F, R): - | MDR1 expression, TPA-treated ([7]; MCF-7 (breast carcinoma), untreated -, assay R): + | MDR1 expression, TPA-treated ([7]; Molt-4 (T-cell leukemia), untreated -, assay F): - | MDR1 expression, TPA-treated ([7]; THP-1, untreated -, assay F): - | increase of MDR1 expression ([8]; EJ bladder carcinoma cells): increase of MDR1 expression | induction of MDR1 mRNA and P-glycoprotein ([8]; H9 cells): clear-cut induction of MDR1 mRNA and P-glycoprotein | time after addition at which MDR1 mRNA became detectable ([8]; H9 cells, TPA): 2 h | time until which MDR1 mRNA continued to increase ([8]; H9 cells, TPA): ≥ 5 h | MDR1 expression induced by TPA alone ([8]; H-9 cells, 10 ng/ml overnight): efficiently induced readily detectable MDR1 expression | induction of MDR1 mRNA and P-glycoprotein ([8]; K562 cells): clear-cut induction of MDR1 mRNA and P-glycoprotein | increase of MDR1 expression ([8]; MCF-7 breast carcinoma cells): increase of MDR1 expression | MDR1 mRNA levels ([8]; human PBL, PCR): corresponding increase in MDR1 mRNA levels | P-glycoprotein on the cell surface [9]: markedly increased the levels of P-glycoprotein on the cell surface | MDR1 expression, TPA-treated [10]: ++ | MDR1 expression, TPA-treated ([10]; mouse FL4 (thymoma), untreated ++, assay F): +++ | effect on P-glycoprotein activity (Rh123 accumulation) [11]: significant increase in the number of Rh123-dull cells

CCCCCCCCCCCCCCCCSCC(COC)COP(=O)([O-])OCC[N+](C)(C)C (stereo not drawn) [ilmofosine]
MTD, oral [3]: 200 mg/day

Cc1ccc(C(=O)Nc2ccc(S(=O)(=O)O)c3cc(S(=O)(=O)O)cc(S(=O)(=O)O)c23)cc1NC(=O)c1cccc(NC(=O)Nc2cccc(C(=O)Nc3cc(C(=O)Nc4ccc(S(=O)(=O)O)c5cc(S(=O)(=O)O)cc(S(=O)(=O)O)c45)ccc3C)c2)c1 [suramin]
activity in hormone-refractory prostate cancer [12]: shown activity in hormone-refractory prostate cancer
